Data from the NIST ThermoML archive (doi:10.1016/j.fluid.2011.03.005).
Numbers after ± are expanded uncertainties.

Tests used:
[1] = for mass density: 101.33 kPa, Liquid, Vibrating tube method
[2] = Molar enthalpy of transition or fusion; conditions: Crystal; DSC

CCC[N+]1(C)CCCCC1.O=S(=O)([N-]S(=O)(=O)C(F)(F)F)C(F)(F)F
[1]
Conditions | mass density [kg/m3]
293.15 K | 1414.1 ± 0.6
298.15 K | 1409.6 ± 0.6
303.15 K | 1405.3 ± 0.6
308.15 K | 1401 ± 0.6
313.15 K | 1396.6 ± 0.6
318.15 K | 1392.3 ± 0.6
323.15 K | 1388 ± 0.6
328.15 K | 1383.7 ± 0.6
333.15 K | 1379.4 ± 0.6
338.15 K | 1375.1 ± 0.6
343.15 K | 1370.9 ± 0.6
348.15 K | 1366.6 ± 0.6
353.15 K | 1362.3 ± 0.5
358.15 K | 1358.1 ± 0.5
363.15 K | 1353.9 ± 0.5

Conditions | Normal melting temperature [°C]
[1], Crystal, DTA | 12.6 ± 0.4

Conditions | Molar enthalpy of transition or fusion [kJ/mol]
[2] | 25.6 ± 0.7
